Source: patent US9073819B2, “Compositions, methods of use, and methods of treatment” (UNIVERSITY OF SOUTH FLORIDA, priority 2011, dated 2015)

Experiments:
GABAa receptors = assay: Agonist activity on GABAa receptors, subtype not separated in the text; type: cell-based; settings: for potentiation of GABAA current / response from GABAa receptors, in words: relative to ketamine, various concentrations
Description: (§1) The GABAa subtypes α6β2δ and α1β2γ2 receptors are expressed at high levels exclusively within mature cerebellar granule neurons.
(§2) The ketamine analogues were tested for agonist activities at GABAa receptors both in the presence and absence of GABA (FIGS. 13-16). […] Oxime 2 was prepared both as a mono-salt and di-salt.

[1] = target: NMDA-B (NR1/2B) receptors (Homo sapiens, UniProt Q05586+Q13224); assay: Antagonist activity on NMDA receptors (current blockade and recovery)
Sequence of NMDA-B (NR1/2B) receptors (Q13224 27-1484, other chains not shown): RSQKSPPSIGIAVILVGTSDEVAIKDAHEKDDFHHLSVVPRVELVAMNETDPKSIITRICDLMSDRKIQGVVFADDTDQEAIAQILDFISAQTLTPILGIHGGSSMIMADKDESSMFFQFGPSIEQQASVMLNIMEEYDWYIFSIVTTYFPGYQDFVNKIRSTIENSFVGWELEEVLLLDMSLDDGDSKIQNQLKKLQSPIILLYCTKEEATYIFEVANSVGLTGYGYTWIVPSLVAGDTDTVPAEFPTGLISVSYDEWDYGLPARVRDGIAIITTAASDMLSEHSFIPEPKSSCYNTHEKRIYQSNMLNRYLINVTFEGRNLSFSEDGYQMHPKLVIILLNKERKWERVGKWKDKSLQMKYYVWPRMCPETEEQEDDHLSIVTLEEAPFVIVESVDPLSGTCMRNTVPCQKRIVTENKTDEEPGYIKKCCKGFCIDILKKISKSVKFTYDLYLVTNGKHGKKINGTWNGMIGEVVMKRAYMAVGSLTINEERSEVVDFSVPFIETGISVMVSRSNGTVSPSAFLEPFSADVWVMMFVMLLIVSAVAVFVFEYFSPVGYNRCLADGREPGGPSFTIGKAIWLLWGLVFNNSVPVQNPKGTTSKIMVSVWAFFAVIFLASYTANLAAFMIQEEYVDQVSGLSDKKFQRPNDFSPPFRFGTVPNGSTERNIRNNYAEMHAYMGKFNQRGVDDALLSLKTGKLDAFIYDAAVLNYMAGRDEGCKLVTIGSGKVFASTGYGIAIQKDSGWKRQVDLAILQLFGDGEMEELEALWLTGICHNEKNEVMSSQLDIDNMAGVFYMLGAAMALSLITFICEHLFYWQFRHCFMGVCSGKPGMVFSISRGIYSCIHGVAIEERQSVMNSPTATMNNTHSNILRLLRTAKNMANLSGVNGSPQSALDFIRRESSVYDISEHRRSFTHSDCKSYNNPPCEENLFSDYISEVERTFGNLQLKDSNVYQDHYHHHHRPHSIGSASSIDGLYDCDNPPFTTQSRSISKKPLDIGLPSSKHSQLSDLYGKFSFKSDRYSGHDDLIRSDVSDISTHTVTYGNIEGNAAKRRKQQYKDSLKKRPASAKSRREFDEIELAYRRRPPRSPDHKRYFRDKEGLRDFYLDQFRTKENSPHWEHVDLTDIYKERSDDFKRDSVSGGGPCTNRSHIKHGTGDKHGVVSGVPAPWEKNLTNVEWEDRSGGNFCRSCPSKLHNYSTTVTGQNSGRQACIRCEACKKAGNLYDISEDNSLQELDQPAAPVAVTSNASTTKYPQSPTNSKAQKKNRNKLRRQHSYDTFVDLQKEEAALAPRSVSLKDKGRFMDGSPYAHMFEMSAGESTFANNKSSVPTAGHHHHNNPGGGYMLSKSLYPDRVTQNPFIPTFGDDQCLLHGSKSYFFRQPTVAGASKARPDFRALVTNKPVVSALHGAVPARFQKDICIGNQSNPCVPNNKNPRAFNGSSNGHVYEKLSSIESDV

[2] = target: NMDA-A (NR1/2A) receptors (Homo sapiens, UniProt Q05586+Q12879); assay: as above
Sequence of NMDA-A (NR1/2A) receptors (Q12879 23-1464, other chains not shown): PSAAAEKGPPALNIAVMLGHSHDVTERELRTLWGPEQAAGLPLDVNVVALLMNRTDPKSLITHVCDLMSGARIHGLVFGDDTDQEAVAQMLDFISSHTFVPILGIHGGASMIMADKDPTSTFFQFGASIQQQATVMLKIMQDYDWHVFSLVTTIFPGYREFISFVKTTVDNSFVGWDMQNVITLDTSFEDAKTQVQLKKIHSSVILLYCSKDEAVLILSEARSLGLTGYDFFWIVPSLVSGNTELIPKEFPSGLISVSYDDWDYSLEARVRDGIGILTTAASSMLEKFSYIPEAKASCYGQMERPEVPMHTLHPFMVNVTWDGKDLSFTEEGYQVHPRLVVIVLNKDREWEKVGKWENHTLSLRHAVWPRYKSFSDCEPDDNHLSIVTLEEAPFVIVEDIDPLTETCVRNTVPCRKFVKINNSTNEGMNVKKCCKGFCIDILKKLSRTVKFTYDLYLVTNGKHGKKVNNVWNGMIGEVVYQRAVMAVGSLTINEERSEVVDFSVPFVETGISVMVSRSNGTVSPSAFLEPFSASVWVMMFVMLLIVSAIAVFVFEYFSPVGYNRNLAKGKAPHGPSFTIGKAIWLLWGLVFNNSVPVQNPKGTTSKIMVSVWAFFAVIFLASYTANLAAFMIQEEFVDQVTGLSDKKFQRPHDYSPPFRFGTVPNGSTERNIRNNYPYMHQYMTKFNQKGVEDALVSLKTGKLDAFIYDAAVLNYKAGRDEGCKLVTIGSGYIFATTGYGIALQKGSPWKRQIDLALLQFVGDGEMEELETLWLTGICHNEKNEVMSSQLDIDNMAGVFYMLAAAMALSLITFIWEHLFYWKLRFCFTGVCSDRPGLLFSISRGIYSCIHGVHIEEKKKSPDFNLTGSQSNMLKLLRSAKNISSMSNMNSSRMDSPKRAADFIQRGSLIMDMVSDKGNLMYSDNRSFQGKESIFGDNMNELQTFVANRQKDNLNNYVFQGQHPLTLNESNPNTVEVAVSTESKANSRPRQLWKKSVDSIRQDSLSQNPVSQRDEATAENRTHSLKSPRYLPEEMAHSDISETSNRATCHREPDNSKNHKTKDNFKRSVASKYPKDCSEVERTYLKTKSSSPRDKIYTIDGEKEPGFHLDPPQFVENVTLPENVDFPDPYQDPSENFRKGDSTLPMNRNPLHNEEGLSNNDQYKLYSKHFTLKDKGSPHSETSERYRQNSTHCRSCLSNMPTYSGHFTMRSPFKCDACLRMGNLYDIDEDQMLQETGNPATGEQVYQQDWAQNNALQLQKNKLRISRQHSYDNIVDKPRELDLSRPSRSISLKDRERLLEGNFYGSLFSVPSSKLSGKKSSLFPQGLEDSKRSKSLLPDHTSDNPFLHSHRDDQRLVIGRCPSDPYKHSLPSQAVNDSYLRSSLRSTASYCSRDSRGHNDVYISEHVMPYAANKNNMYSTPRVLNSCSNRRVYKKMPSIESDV

[3] = Lipophilicity relative to ketamine; type: physicochemical
[4] = target: NMDA-D (NR1/2D) receptors (Homo sapiens, UniProt O15399+Q05586); assay: Antagonist activity on NMDA receptors (current blockade and recovery)
NMDA-NR1/2C receptors = NMDA-NR1/2C receptors (Homo sapiens, UniProt Q05586+Q14957); assay: as above; type: cell-based; settings: concentrations 0.1 to 200 μM
NMDA receptors = assay: NMDA receptor blockade and recovery, subtypes not separated in the text; type: cell-based; settings: compared with ketamine
mice = settings: not significant when compared with ketamine; cited from earlier work
α6β2δ GABAa receptors = target: T1, α6β2δ GABAa receptors (Homo sapiens, UniProt O14764+P47870+Q16445); assay: Agonist activity of ketamine analogues on GABAa receptors (potentiation of GABA current, oocyte expression system); type: cell-based
T1 construct: expressed in transfected cells
Description: as §1, §2

rats [5] = assay: Dose response study of motor coordination in rats (open field behavior); type: in vivo
Description: The effect of ketamine oxime disalt on motor coordination in rats was evaluated.

rats [6] = assay: Tail suspension model of depression in rats; type: in vivo; settings: 5 mg/kg, tail suspension for 12 minutes
Description: Rats were dosed with ketamine oxime disalt and then tested in a model of depression. FIG. 24 illustrates an analysis of the antidepressant effects of ketamine and the oxime analogue at 5 mg/kg in rats undergoing tail suspension for 12 minutes. Note that immobility, giving up the struggle, is a sign of depression in this model. […] V is vehicle, A is ketamine, B is ketamine oxime analogue.

α1β2γ2 GABAa receptors = target: T2, α1β2γ2 GABAa receptors (Homo sapiens, UniProt P14867+P18507+P47870); assay: Agonist activity of ketamine analogues on GABAa receptors (potentiation of GABA current, oocyte expression system); type: cell-based; settings: for potentiation of GABAa current, in words: 20 μM
T2 construct: expressed in transfected cells
T2 sequence (P14867 28-456): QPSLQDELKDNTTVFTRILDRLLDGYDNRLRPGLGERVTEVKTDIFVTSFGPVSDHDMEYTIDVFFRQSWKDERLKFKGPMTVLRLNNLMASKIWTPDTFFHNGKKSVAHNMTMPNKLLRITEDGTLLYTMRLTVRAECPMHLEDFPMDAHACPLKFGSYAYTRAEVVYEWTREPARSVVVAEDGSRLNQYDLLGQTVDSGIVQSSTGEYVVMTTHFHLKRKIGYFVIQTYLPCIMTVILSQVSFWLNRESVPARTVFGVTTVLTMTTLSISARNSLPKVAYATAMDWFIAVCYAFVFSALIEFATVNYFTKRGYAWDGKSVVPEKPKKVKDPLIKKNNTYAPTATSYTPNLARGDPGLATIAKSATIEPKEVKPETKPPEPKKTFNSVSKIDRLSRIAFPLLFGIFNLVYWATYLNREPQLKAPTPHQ
T2 sequence (P47870 25-512 limits assumed): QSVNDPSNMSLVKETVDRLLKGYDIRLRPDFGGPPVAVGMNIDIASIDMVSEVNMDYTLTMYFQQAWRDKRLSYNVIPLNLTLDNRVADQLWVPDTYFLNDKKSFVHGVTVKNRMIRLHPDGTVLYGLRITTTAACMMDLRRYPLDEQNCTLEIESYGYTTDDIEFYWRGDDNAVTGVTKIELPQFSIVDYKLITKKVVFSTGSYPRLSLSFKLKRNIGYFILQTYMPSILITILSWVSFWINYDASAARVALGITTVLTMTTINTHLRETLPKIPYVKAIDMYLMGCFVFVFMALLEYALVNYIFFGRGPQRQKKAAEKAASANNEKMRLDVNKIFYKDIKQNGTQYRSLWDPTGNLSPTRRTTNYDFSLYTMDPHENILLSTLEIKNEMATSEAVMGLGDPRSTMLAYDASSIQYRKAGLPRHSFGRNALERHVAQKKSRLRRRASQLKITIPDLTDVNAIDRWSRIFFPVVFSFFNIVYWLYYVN
T2 sequence (P18507 40-475): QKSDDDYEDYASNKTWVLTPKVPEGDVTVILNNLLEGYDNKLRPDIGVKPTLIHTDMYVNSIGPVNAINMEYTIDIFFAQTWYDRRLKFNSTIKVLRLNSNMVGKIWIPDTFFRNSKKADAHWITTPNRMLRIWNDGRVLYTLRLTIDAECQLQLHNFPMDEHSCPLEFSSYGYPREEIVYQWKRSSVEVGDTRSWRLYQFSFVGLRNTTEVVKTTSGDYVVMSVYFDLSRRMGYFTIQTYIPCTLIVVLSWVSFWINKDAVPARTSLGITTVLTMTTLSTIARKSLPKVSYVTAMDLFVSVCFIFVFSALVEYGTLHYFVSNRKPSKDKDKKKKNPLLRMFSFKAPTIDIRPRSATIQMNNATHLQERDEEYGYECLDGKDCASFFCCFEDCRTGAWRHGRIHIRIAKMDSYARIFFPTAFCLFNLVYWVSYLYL
Description: as §1, §2

[7] = tested on: α6- and δ-containing GABAa receptors; settings: within anesthetically relevant concentration; cited from earlier work
[8] = tested on: NMDA receptors with NR2-A and NR2-B subunits; settings: cited from earlier work
[9] = NMDA-B (NR1/2B), drug concentration 50 μM, current post drug treatment
[10] = NMDA-A (NR1/2A), drug concentration 50 μM, current post drug treatment
[11] = NMDA-D (NR1/2D), drug concentration 50 μM, current post drug treatment
[12] = NMDA-NR1/2B, affinity study, concentrations 0.1 to 200 μM
[13] = NMDA-NR1/2A, affinity study, concentrations 0.1 to 200 μM
[14] = NMDA-NR1/2D, affinity study, concentrations 0.1 to 200 μM

Row | SMILES | potentiation of GABAA current / response from GABAa receptors, in words (GABAa receptors) | inhibition at 50 µM [1] [%] | % Recovery [1, 9] [%] | inhibition at 50 µM [2] [%] | % Recovery [2, 10] [%] | inhibition at 50 µM [4] [%] | % Recovery [4, 11] [%] | IAverage = (IGABA + Drug/IGABA) 100 (α6β2δ GABAa receptors; Conc. 10 (μM)) [n. amp] | IAverage = (IGABA + Drug/IGABA) 100 (α6β2δ GABAa receptors; Conc. 20 (μM)) [n. amp] | IAverage = (IGABA + Drug/IGABA) 100 (α6β2δ GABAa receptors; Conc. 50 (μM)) [n. amp] | also measured
1 | CNC1(c2ccccc2Cl)CCCC/C1=N\OC (stereo not drawn) [Methoxime, 2-(2-Chloro-phenyl)-2-methylamino-cyclohexanone O-methyl-oxime] | did not evoke considerable response | 75.6 | 71.6417 | 25.3 | 98.453 | 57.5 | 82.5 | – | – | – | lipophilicity compared to ketamine [3]: increased lipophilicity
2 | CNC1(c2ccccc2Cl)CCCC/C1=N\O (stereo not drawn) [Oxime, 2-(2-Chloro-phenyl)-2-methylamino-cyclohexanone oxime] | greatly potentiated | 83 | 33.9622 | 89.2 | 86.1538 | 86.7 | 52.272 | – | – | – | excitory post synaptic potential relative to ketamine (GABAa receptors; GABAa receptors): two times more excitory post synaptic potential than ketamine; IC50 [1]: 1.07 µM; % Recovery [1, 12]: 31%; IC50 [2]: 5.91 µM; IC50 versus ketamine ([2]; NMDA-A receptors): two fold higher; % Recovery [2, 13]: 74%; % Recovery (NMDA-NR1/2C receptors; affinity study): 44%; IC50 (NMDA-NR1/2C receptors): 0.747 µM; lasting effect following wash of the drug (NMDA receptors): less than ketamine; lipophilicity compared to ketamine [3]: reduce lipophilicity; IC50 [4]: 1.07 µM; % Recovery [4, 14]: 68%
3 | CC1(N)CCc2ccccc2C1=O (stereo not drawn) [2-amino-2-methyl-1-tetralone] | – | – | – | – | – | – | – | – | – | – | locomotor activity (mice): increased locomotor activity
4 | CC1(N)C(=O)CCc2ccccc21 (stereo not drawn) [1-amino-1-methyl-2-tetralone] | – | – | – | – | – | – | – | – | – | – | locomotor activity (mice): decreased
5 | CNC1(c2ccccc2Cl)CCCCC1O (stereo not drawn) [Hydroxy, 2-(2-Chloro-phenyl)-2-methylamino-cyclohexanol] | less sensitivity than ketamine | – | – | – | – | – | – | 100 | 100 | 123.98 | IAverage = (IGABA + Drug/IGABA) 100 (α6β2δ GABAa receptors; Conc. 100 (μM)): 135.41 n. amp
6 | CNC1(c2ccccc2Cl)CCCC/C1=N\O (stereo not drawn) [Oxime (Disalt), 2-(2-Chloro-phenyl)-2-methylamino-cyclohexanone oxime] | – | – | – | – | – | – | – | 165.4 | 239 | 418 | effect on motor coordination (open field behavior) (rats [5]; 6 and 12 minute period following injection, dose response): CNS depressant effects; observed behaviour in vivo (rats [5]; at higher doses): loss of equilibrium, unsteady gait and immobility; righting reflex (an indication of anesthesia) (rats [5]; at higher doses): without loss of righting reflex; immobility in tail suspension, overall versus saline (rats [6]): No significant differences; immobility in tail suspension, slope analysis (rats [6]): decreased immobility; potentiation of GABAa current, in words (α6β2δ GABAa receptors; 20 μM): greater potentiation; increase in potentiation relative to ketamine (α6β2δ GABAa receptors; 50 μM): nearly two fold increase; potentiation of GABAa current, in words (α1β2γ2 GABAa receptors): greatly potentiated; increase in potentiation relative to ketamine (α1β2γ2 GABAa receptors; 100 μM): nearly two fold increase; IAverage = (IGABA + Drug/IGABA) 100 (α1β2γ2 GABAa receptors; Conc. 20 (μM)): 122.678 n. amp; IAverage = (IGABA + Drug/IGABA) 100 (α1β2γ2 GABAa receptors; Conc. 50 (μM)): 153.41 n. amp; IAverage = (IGABA + Drug/IGABA) 100 (α1β2γ2 GABAa receptors; Conc. 100 (μM)): 214.5 n. amp
7 | c1ccc(C2(N3CCCCC3)CCCCC2)cc1 [PCP, Phencyclidine, reference compound] | – | 96.8 | 59.677 | 88.4 | 93.953 | 87.5 | 66.666 | – | – | – | potentiation of GABA / tonic chloride current [7]: less active compared to ketamine
8 | CNC1(c2ccccc2Cl)CCCCC1=O (stereo not drawn) [Ketamine, reference compound] | – | 80.5 | 34.564 | 57.6 | 84.745 | 88.1 | 26.19 | 116.2 | 157.1 | 218.3 | IC50 [1]: 0.82 µM; % Recovery [1, 12]: 19%; IC50 [2]: 2.32 µM; % Recovery [2, 13]: 28%; potentiation of GABA / tonic chloride current [7]: potentiated the GABA current; immobility in tail suspension, overall versus saline (rats [6]): No significant differences; IC50 [4]: 0.76 µM; % Recovery [4, 14]: 24%; potentiation of GABAa current, in words (α1β2γ2 GABAa receptors): not able to potentiate any current; IAverage = (IGABA + Drug/IGABA) 100 (α1β2γ2 GABAa receptors; Conc. 20 (μM)): 0 n. amp; IAverage = (IGABA + Drug/IGABA) 100 (α1β2γ2 GABAa receptors; Conc. 50 (μM)): 105 n. amp; IAverage = (IGABA + Drug/IGABA) 100 (α1β2γ2 GABAa receptors; Conc. 100 (μM)): 119 n. amp
9 | CNC1(c2ccccc2Cl)CCCC/C1=N\O (stereo not drawn) [Oxime (Monosalt), 2-(2-Chloro-phenyl)-2-methylamino-cyclohexanone oxime] | – | – | – | – | – | – | – | 128.2 | 193.746 | 312.04 | –
10 | CNC1(c2ccccc2Cl)CCCC/C1=N\NC(N)=O (stereo not drawn) [Semicarbazone, 2-(2-Chloro-phenyl)-2-methylamino-cyclohexanone O-semicarbazone] | less sensitive than ketamine | 50.8 | 98.484 | 33.6 | – | 33.3 | – | – | – | – | –
11 | C[C@]12N[C@H](Cc3ccccc31)c1ccccc12 [Mk-801] | – | – | – | – | – | – | – | – | – | – | potentiation of GABA / tonic chloride current [7]: less active compared to ketamine
12 | CNC1(c2ccccc2Cl)CCCC/C1=N\OCc1ccccc1 (stereo not drawn) [Benzoxime, 2-(2-Chloro-phenyl)-2-methylamino-cyclohexanone O-benzyl-oxime] | did not evoke considerable response | 41 | 77.639 | – | – | 49.3 | 79.452 | – | – | – | lipophilicity compared to ketamine [3]: increased lipophilicity
13 | CNC1(c2ccc(OC)cc2Cl)CCCCC1=O (stereo not drawn) [G] | – | – | – | – | – | – | – | – | – | – | functional activity in comparison to ketamine [8]: appreciable activity
